In US20230405063A1, “USE OF PROBIOTIC COMPONENT AND PHARMACEUTICAL COMPOSITION CONTAINING PROBIOTIC COMPONENT” (CHENGDU KUACHANGAOPU MEDICAL TECHNOLOGY CO., LTD., priority 2020, published 2023):

Columns and labels:
Assay type in all cases: in vivo
[1] = tested on: mouse embryonic fibroblasts 3T3; test: Local lesion inhibition in 3T3 fibroblast nodule model in nude mice (Example 6, Table 9); details: dosed twice at interval of 2 days, 150 μl/mouse/time, 7th day after final administration; for V (x ± s), volume of local lesions, series B / relative local lesion inhibition rate r′B: intra-nodal injection; for V (x ± s), volume of local lesions, series A / relative local lesion inhibition rate r′A: intraperitoneal injection
Source text: (§1) V=0.5×a×b^2, wherein a and b represent the length and width of the local lesion, respectively; Volume of the local lesion (e.g. tumor):
(§2) Local lesion (e.g., tumor) proliferation rate (R)=TV/CV×100, wherein TV and CV are the local lesion volumes in the study group and negative control group, respectively;
(§3) The method for determining the effect of combined drug administration in animal experiments was Burgi method (Burgi Y. Pharmacology; Drug actions and reactions. Cancerres. 1978, 38(2), 284-285). The Burgi method was modified by Zhengjun JIN (Zhengjun JIN, Equal probability and curve and “Q50”, Journal of the Second Shanghai Medical College; 1981, 1, 75-86) with q calculated as: q=EA+B/(EA+EB−EA×EB). In the following examples of the present invention, the combinational pharmaceutical efficacies (drug efficacies) of drug A and drug B co-administration was determined by ratio q of actual pharmaceutical efficacy (drug efficacy)/theoretical pharmaceutical efficacy (drug efficacy) according to Zhengjun JIN method, as follows.
Nude mice were used as experimental subjects, and mouse embryonic fibroblasts 3T3 were used as modeling cells. 2×10^4 cells/mouse were injected into the right axilla subcutaneously for transplantation nodule modeling, and the average volume of tumor-like nodules in successfully modeled nude mice was 171.5 mm^3. The model animals were randomly divided into […], and the drugs were administered according to Table 9. Each group except for groups 21-24 were administered by intraperitoneal injection, intra-nodal injection. The drugs used in groups 21-24 were a composition of non-local administration dosage form (dosage form that a probiotic component and a co-administration substance could be administered separately). The administration route of series A was: intraperitoneal injection of probiotic component+intra-nodal injection of co-administration substance; and the administration route of series B was: intraperitoneal injection of co-administration substance+intra-nodal injection of probiotic component. Each group was dosed twice at an interval of 2 days, with an injection volume of 150 μl/mouse/time. On the 7th day after the final administration, the volume (V) of local lesions comprising fibroblasts was measured, and the relative local lesion inhibition rates (r′A, r′B) were calculated for series A and series B, respectively, as compared with the negative control group. Further, the actual drug efficacy/expected efficacy ratio q could also be calculated according to the therapeutic effect (local lesion inhibition rate).

[2] = tested on: human liver cancer HepG2 cells; test: Tumor inhibition in HepG2 tumor-bearing nude mice (Example 2, Table 4); details: for Tumor weight (x ± s) / Tumor inhibition rate r: dosed once, 150 μl/mouse; for Tumor weight (x ± s): 7th day after administration; for Tumor inhibition rate r: 7th day, relative to negative control; for Ratio of tumor inhibition rates, intratumoral group / intravenous group of the same drug (E7/E1, E8/E2, E10/E4): same drug and dose, local vs systemic administration
Method: The tumor-bearing nude mice were widely used for drug studies on chemotherapy rather than immunotherapy in patients with solid tumors. Taking nude mice as experimental subjects, human liver cancer HepG2 cells were used as modeling cells, and 1×10^5 cells/mouse were injected into the right axilla subcutaneously for transplantation tumor modeling, and the average tumor volume of successfully modeled nude mice was 161.3 mm^3. The model animals were randomly divided into 17 groups. The drugs were administered according to the drug and dosing method in Table 4. Each group was dosed once with an injection volume of 150 μl/mouse. On the 7th day after drug administration, the animals were euthanized, and after dissection, the tumor tissue was taken out to determine the tumor weight, and the tumor inhibition rate (r) was calculated relative to the negative control group.

breast cancer 4T1 cells [3] = test: Short-term tumor inhibition in 4T1 tumor-bearing BALB/c mice (Example 9, Table 14); details: dosed twice, 7th day after final administration; for tumor inhibition rate rA: series A: intravenous injection; for tumor inhibition rate rB: series B: intratumoral injection
Source text: as §3
BALB/c mice were used as experimental subjects, and breast cancer 4T1 cells were used as modeling cells. 0.5×10^6 cells/mouse were injected into the right axilla subcutaneously for transplantation tumor modeling, and the average tumor volume of successfully modeled nude mice was 160.1 mm^3. The model animals were randomly divided into 21 groups, and the drugs were administered by intravenous injection (series A) and intratumoral injection (series B) according to the drugs and doses in Table 14, respectively. All the drugs administered were aqueous liquids, which were formulated according to the method of Example 1. Each group was dosed twice. On the 7th day after final administration, the animals were euthanized, and the tumor tissues were taken out after dissection to determine the tumor weight, and the tumor inhibition rates rA and rB were calculated relative to the corresponding negative control groups in series A and series B.

breast cancer 4T1 cells [4] = test: Short- and medium/long-term relative tumor proliferation rate in 4T1 tumor-bearing BALB/c mice (Example 10, Table 16); details: intratumoral injection, dosed twice at interval of 7 days, 100 μl/mouse/time; for relative tumor proliferation rate R7 d: day 7 after last dose; for relative tumor proliferation rate R21 d: day 21 after last dose
Source text: as §1, §2, §3
BALB/c mice were used as experimental subjects, and breast cancer 4T1 cells were used as modeling cells. 0.5×10^6 cells/mouse were injected into the right axilla subcutaneously for transplantation tumor modeling, and the average tumor volume of successfully modeled nude mice was 107.4 mm^3. The model animals were randomly divided into 17 groups.
The drugs, formulated according to the method of Example 1, were administered according to Table 16. Each group was dosed twice with an interval of 7 days, and the injection volumes were 300 μl/mouse/time for groups 13 and 14, 100 μl/mouse/time for other groups. The drugs were administered by subaxillary administration of the right forelimb for group 15, and by intratumoral injection for other groups. Group 16 was administered sequentially (the first dose was aprobiotic semi-fluid-like component/cytotoxic drug/weak local acting compound, and the last dose was inactivated probiotics), while the other groups were administered with the same drug twice. On days 7 and 21 after the last dose, the tumor volumes of each group were measured (V7d, V21d), and the relative tumor proliferation rates (R7d, R21d) were calculated relative to the negative control group, respectively, so that the short-term therapeutic effectiveness (100%−R7d) and the medium- and long-term therapeutic effectiveness (100%−R21d) could be calculated, respectively.

[5] = tested on: gastric tumor cells (BGC823); test: Tumor inhibition in BGC823 tumor-bearing nude mice (Example 5, Table 8); details: intratumoral injection once, 150 μl/mouse, 7th day
Source text: as §3
Nude mice were used as experimental subjects, and gastric tumor cells (BGC823) were used as modeling cells, 1×10^5 cells/mouse were injected into the right axilla subcutaneously for transplantation tumor modeling, and the average tumor volume of successfully modeled nude mice was 164.4 mm^3. The model animals were randomly divided into 14 groups, and the drugs according to the pharmacological constitutions in Table 8 were administered via intratumoral injection. Each group was dosed once with an injection volume of 150 μl/mouse; wherein the pharmaceutical compositions of groups 5, 11 were semi-fluid, the pharmaceutical compositions of other groups are liquid. On the 7th day after drug administration, the animals were euthanized, and after dissection, the tumor tissue was taken out to determine the tumor weight, and the tumor inhibition rate (r) was calculated relative to the negative control group. Further, the actual efficacy/expected efficacy ratio q of a drug could also be calculated according to the therapeutic effect (tumor inhibition rate).

## CCO [75% ethanol, ethanol]
[1]
  V (x ± s), volume of local lesions, series B: 1.078 ± 0.221 cm^3
  relative local lesion inhibition rate r′B: 24.7%
  V (x ± s), volume of local lesions, series A: 1.300 ± 0.197 cm^3
  relative local lesion inhibition rate r′A: 4.2%
[2]; intratumoral injection
  Tumor weight (x ± s): 0.122 ± 0.085 g
  Tumor inhibition rate r: 53.6%
[2]; intravenous injection
  Tumor weight (x ± s): 0.226 ± 0.113 g
  Tumor inhibition rate r: 6.1%
[2]
  Ratio of tumor inhibition rates, intratumoral group / intravenous group of the same drug (E7/E1, E8/E2, E10/E4): > 200%
Breast cancer 4T1 cells [3]
  tumor inhibition rate rA: 2.8%
  tumor inhibition rate rB: 21.3%
Breast cancer 4T1 cells [4]
  relative tumor proliferation rate R7 d: 47%
  relative tumor proliferation rate R21 d: 95%

## O=c1[nH]cc(F)c(=O)[nH]1 [1% 5-fluorouracil, 5-fluorouracil]
[5]
  Tumor inhibition rate r: 41.4%
  Tumor weight (x ± s): 0.132 ± 0.069 g
[1]
  V (x ± s), volume of local lesions, series B: 1.226 ± 0.217 cm^3
  relative local lesion inhibition rate r′B: 14.3%
  V (x ± s), volume of local lesions, series A: 1.225 ± 0.211 cm^3
  relative local lesion inhibition rate r′A: 9.7%
[2]; intratumoral injection
  Tumor weight (x ± s): 0.133 ± 0.094 g
  Tumor inhibition rate r: 49.5%
[2]; intravenous injection
  Tumor weight (x ± s): 0.139 ± 0.094 g
  Tumor inhibition rate r: 42.3%
[2]
  Ratio of tumor inhibition rates, intratumoral group / intravenous group of the same drug (E7/E1, E8/E2, E10/E4): < 200%
Breast cancer 4T1 cells [3]
  tumor inhibition rate rA: 38.1%
  tumor inhibition rate rB: 44.1%
Breast cancer 4T1 cells [4]
  relative tumor proliferation rate R7 d: 51%
  relative tumor proliferation rate R21 d: 93%
